Test results as given in US12502374B2, “Composition for preventing, alleviating, or treating inflammatory disease containing isookanin or salt thereof as active ingredient” (BioSpectrum, Inc., priority 2020, dated 2025).

What was measured:
HMEC-1 [1] = test: PGE2-induced vascular endothelial cell tube formation on Matrigel; assay type: cell-based, human; conditions: 20 μM, 24 hours; compared with 100 ng/ml VEGF
Method: Human vascular endothelial cells (HMEC-1) were seeded in a Matrigel-coated 24-well plate at a density of 1.2×10^5 cells per well, and each well was pretreated with 10 ppm of isookanin for 2 hours. Next, each well was treated with PGE2 at a concentration of 20 μM and incubated for 24 hours. As a negative control, 100 ng/ml of VEGF was used. After 24 hours of incubation, the degree of vascular cell tube formation was observed using a microscope, and the results were photographed with a microscope camera and analyzed with Image J, and are shown in FIGS. 10 and 11.

HMEC-1 [2] = test: PGE2-induced vascular endothelial cell migration (scratch assay); assay type: cell-based, human; conditions: 20 μM, 24 hours; compared with 100 ng/ml VEGF
Method: Human vascular endothelial cells (HMEC-1) were seeded in a 12-well plate at a density of 2×10^5 cells per well and cultured in an incubator for 24 hours at 37° C. under 5% CO2. After the cells in each well were grown to 80% confluency, the central part of each well was scratched using a yellow pipette tip. Next, each well was pretreated with each concentration of isookanin for 2 hours and then treated with 20 μM PGE2 and incubated for 24 hours. As a negative control, 100 ng/ml of VEGF was used. After 24 hours of incubation, the degree of vascular cell migration was observed using a microscope, and the results were photographed with a microscope camera and shown in FIG. 9.

human skin [3] = test: Human skin safety, repeated insult patch test (Finn chamber); assay type: in vivo; conditions: 30 healthy adults
Method: In order to confirm that the isookanin according to the present invention is safe for human skin, a skin safety verification test was performed. To this end, a repeated insult patch test was conducted.
Nourishing creams containing the isookanin in amounts of 0.1%, 0.5% and 1%, respectively, were prepared. Specifically, a water phase containing purified water, triethanolamine and propylene glycol was dissolved by heating to 70° C. and then emulsified by adding a solution obtained by dissolving beeswax, liquid paraffin, an oil component, an emulsifier and a preservative by heating to 70° C. After completion of emulsification, the solution was cooled to 45° C., and the isookanin was added thereto in amounts of 0.1%, 0.5% and 1% and dispersed therein, followed by cooling to 30° C. As the content of the isookanin was increased from 0.1% to 0.5% and 1%, the content of liquid paraffin was decreased from 9.91% to 9.51% and 9.01%, respectively, thereby preparing nourishing creams.
Using the nourishing creams prepared as described above, a repeated insult patch test was conducted on the upper arm areas of 30 healthy adults every other day for a total of 9 times for 24 hours per time to determine whether the isookanin irritated the skin.
The patch test was performed using a Finn chamber (Epitest Ltd., Finland). 15 μl of each of the external skin preparations was dropped into the chamber, and then the patch test was performed.
[Equation 1] Average degree of reaction=[[(reaction index×degree of reaction)/(total number of subjects×highest score (4)]×100]÷number of tests (9)
In the degree of reaction, ± represents a score of 1, + represents a score of 2, and ++ represents a score of 4. When the average degree of reaction is less than 3, the corresponding composition is determined to be safe.

human skin [4] = test: as above; assay type: in vivo; conditions: 30 healthy adults; 10th patch test; dash = no subject

| SMILES | effect on vascular cell tube formation (HMEC-1 [1]) | effect on vascular endothelial cell migration (HMEC-1 [2]) | Average degree of reaction (human skin [3]; upper arm, 24 hours per patch, Equation 1, less than 3 is determined to be safe) | Number of subjects showing reaction (±, +, ++), 1st (human skin [3]; 1st patch test, dash = no subject) | Number of subjects showing reaction (±, +, ++), 2nd (human skin [3]; 2nd patch test, dash = no subject) | Number of subjects showing reaction (±, +, ++), 5th (human skin [3]; 5th patch test, dash = no subject) | Number of subjects showing reaction (±, +, ++), 6th (human skin [3]; 6th patch test, dash = no subject) | Number of subjects showing reaction (±, +, ++), 7th (human skin [3]; 7th patch test, dash = no subject) | Number of subjects showing reaction (±, +, ++), 8th (human skin [3]; 8th patch test, dash = no subject) | Number of subjects showing reaction (±, +, ++), column between 3rd and 5th (human skin [3]; dash = no subject) | Number of subjects showing reaction (±, +, ++), 10th (human skin [4]) |
| --- | --- | --- | --- | --- | --- | --- | --- | --- | --- | --- | --- |
| CCCCC[C@H](O)/C=C/[C@H]1[C@H](O)CC(=O)[C@@H]1C/C=C\CCCC(=O)O [PGE2, reference compound] | promoted vascular cell tube formation, similar to VEGF | promoted vascular endothelial cell migration, similar to VEGF |  |  |  |  |  |  |  |  |  |
| CC(C)=CCC/C(C)=C/CC/C(C)=C/CC/C=C(\C)CC/C=C(\C)CCC=C(C)C [squalene] |  |  | 0.09 | - - - | - - - | - - - | - - | - - - | - - - | - - - | - - - |
